# Assay results: patent US5767129A, “Substituted quinolines and isoquinolines as calcium channel blockers, their preparation and the use thereof” (Warner-Lambert Company, priority 1996, dated 1998)
# Assays:
# [1] = target: T1, N-type calcium channels (IMR-32 cells) (Homo sapiens, UniProt Q00975); assay: N-type Ca2+ channel blocking in IMR-32 cells using the fluorescent Ca2+ indicator Indo-1; format: cell-based; details: 5 μM nitrendipine to block L-type channels, KCl depolarization, 30° C., read-out: Inhibition of Ca^+2 Influx in IMR-32 Cells IC50
# T1 construct: host or cells: IMR-32 cells, differentiated with dibutyryl cAMP and bromodeoxyuridine
# Procedure: Measurement of N-type Ca2+ Channel Blocking Potencies of Compounds in IMR-32 Cells Using the Fluorescent Ca2+ Indicator Indo-1 IMR-32 cells are a human tumoral cell line of neural origin. […] Calcium flux into these cells may be induced by stimulation with elevated potassium concentrations. The L-channel component of calcium flux may be blocked by adding 5 μM nitrendipine. The remaining component of calcium entry into the IMR-32 cells is due to calcium flux through N-type calcium channels. Intracellular calcium concentrations are measured using the fluorescent calcium indicator Indo-1. The effect of drug concentration on calcium uptake is studied. Methods The IMR-32 cell line was obtained from the American Type Culture Collection (Rockville, Md.). Cells were grown in Eagle's Minimum Essential Medium with Earle's salts supplemented with 10% fetal bovine serum, 2 mM L-Gln and antibiotic/antimicotic mixture (Gibco). At approximately 80% confluency, differentiation was induced by the addition of 1 mM dibutyryl cAMP and 2.5 μM bromodeoxyuridine to the medium. After 7 to 13 days of differentiation, cells were detached using 0.5 mM EDTA and loaded with five 5 μM Indo-1 acetoxymethyl ester (Molecular Probes, Eugene, Oreg.) at 30° C. for 45 minutes. Loaded cells were washed twice, resuspended (~10^7 cells/mL) in assay buffer (10 mM HEPES/Tris pH 7.4 in Hank's Balanced Salt Solution without bicarbonate or phenol red containing 0.5% bovine serum albumin) and kept on ice until use. Fluorescence measurements were carried out in a Photon Technology International (PTI, South Brunswick, N.J.) Model RF-[…] spectrofluorometer with dual emission monochromators using excitation at 350 nm and emission at 400 and 490 nm. The instrument was equipped with a thermostatted cuvette holder with stirring capabilities as well as with a computer-controlled pump which allowed for reagent addition during measurement. Instrument control and data collection was done by PTI's OSCAR software running on an IBM compatible computer. […] At 20 seconds after the start of reading, cells were depolarized by the addition of 160 μL of stimulation solution (1M KCl, 68 mM CaCl2) to the cuvette via the computer-controlled pump. Ratio of dual emission signals (400 nm/490 nm), which is proportional to intracellular Ca^2+ concentration, was plotted against time, and the difference between maximal response after stimulation and basal value (before stimulation) was determined. […] IC50 values of test compounds were calculated by fitting a four-parameter logistic function to the data using the least squares method.
# ischemia and pain = details: Bowersox et al. 1994; cited from earlier work
# T1 sequence (Q00975 whole entry): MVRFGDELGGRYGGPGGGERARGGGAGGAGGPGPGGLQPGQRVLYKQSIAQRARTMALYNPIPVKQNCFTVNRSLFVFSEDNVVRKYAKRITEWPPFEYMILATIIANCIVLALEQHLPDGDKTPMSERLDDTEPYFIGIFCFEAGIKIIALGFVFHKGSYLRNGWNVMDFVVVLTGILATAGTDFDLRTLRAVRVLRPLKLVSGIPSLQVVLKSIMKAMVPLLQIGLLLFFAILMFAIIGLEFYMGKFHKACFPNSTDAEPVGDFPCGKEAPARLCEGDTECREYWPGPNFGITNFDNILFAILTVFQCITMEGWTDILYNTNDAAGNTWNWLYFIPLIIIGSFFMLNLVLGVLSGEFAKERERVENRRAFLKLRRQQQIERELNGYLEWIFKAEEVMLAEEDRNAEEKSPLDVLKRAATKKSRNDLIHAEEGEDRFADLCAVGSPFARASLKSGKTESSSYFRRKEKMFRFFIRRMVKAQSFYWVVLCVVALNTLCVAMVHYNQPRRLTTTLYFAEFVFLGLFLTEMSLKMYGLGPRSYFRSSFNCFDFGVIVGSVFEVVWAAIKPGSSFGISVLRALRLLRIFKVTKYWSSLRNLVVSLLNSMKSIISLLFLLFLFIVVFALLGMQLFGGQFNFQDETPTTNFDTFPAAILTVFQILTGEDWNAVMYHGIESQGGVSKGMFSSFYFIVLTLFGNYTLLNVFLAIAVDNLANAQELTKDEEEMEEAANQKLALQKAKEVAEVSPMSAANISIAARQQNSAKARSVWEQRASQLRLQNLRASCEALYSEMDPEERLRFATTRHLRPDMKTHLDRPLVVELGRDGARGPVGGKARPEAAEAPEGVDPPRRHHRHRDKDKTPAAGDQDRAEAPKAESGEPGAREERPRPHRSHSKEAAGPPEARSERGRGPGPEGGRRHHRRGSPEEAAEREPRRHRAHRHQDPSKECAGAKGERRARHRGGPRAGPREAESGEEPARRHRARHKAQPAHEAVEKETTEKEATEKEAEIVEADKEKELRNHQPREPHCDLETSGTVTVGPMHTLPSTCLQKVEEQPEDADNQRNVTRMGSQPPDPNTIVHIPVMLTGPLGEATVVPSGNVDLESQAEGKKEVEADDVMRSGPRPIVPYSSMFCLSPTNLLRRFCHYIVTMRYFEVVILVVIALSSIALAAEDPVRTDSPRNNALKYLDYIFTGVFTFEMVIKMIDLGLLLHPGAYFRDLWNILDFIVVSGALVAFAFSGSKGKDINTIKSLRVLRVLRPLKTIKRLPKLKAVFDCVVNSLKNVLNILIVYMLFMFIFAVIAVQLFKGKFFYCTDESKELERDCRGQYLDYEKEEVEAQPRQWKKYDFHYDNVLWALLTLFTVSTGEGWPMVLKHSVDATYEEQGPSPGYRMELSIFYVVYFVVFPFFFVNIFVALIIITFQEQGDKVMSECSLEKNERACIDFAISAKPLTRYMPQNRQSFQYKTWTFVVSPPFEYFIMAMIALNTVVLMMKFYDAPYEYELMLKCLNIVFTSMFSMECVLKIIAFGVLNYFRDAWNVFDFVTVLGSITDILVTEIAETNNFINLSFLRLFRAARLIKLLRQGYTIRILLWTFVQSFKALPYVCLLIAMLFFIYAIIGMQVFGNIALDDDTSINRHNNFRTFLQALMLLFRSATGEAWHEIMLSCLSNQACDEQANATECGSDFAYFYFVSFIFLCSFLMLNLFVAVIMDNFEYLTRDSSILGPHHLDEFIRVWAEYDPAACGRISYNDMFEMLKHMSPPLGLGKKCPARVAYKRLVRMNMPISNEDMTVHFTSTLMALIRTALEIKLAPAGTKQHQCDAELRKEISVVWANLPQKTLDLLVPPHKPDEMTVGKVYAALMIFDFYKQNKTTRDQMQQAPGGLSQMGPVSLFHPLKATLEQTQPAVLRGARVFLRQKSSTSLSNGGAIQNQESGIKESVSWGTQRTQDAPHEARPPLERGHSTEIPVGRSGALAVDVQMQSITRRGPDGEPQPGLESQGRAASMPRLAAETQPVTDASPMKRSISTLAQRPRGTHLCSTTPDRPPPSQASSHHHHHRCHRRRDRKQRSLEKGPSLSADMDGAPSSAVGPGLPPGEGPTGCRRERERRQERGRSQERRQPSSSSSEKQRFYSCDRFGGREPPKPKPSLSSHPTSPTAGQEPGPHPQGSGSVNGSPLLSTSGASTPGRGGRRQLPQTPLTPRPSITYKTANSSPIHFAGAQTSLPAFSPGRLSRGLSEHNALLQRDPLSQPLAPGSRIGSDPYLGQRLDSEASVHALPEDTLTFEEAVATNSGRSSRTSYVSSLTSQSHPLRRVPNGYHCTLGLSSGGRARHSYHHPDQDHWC
SMILES,IC50 [1] [nM],activity in models of ischemia and pain (in words) (ischemia and pain)
"Oc1c(CN2CCCCCC2)ccc2c1CCN(CCCC(c1ccccc1)c1ccccc1)C2 [Example 6, 6-Azepan-1-ylmethyl-2-(4,4-diphenylbutyl)-1,2,3,4-tetrahydroisoquinolin-5-o]",820,
"Oc1c(CNC2CCCCC2)ccc2c1CCN(CCCC(c1ccccc1)c1ccccc1)C2 [Example 7, 6-Cyclohexylaminomethyl-2-(4,4-diphenylbutyl)-1,2,3,4-tetrahydroisoquinolin-5-ol]",1000,
"c1ccc(C(CCCN2CCc3c(ccc4c3OCN(C3CCCCC3)C4)C2)c2ccccc2)cc1 [Example 8, 2-Cyclohexyl-7-(4,4-diphenylbutyl)-2,3,5,6,7,8-hexahydro-1H-4-oxa-2,7-diazaphenanthrene]",1100,
"Oc1c(CN2CCCCCC2)ccc2c1CCN(CCCC(c1ccc(F)cc1)c1ccc(F)cc1)C2 [Example 11, 6-Azepan-1-ylmethyl-2-[4,4-bis-(4-fluorophenyl)-butyl]-1,2,3,4-tetrahydroisoquinolin-5-ol]",1300,
CSCC[C@@H]1NC(=O)[C@H](CC(C)C)NC(=O)[C@H](CCCNC(=N)N)NC(=O)[C@H](CO)NC(=O)[C@@H]2CSSC[C@@H]3NC(=O)[C@H](CO)NC(=O)CNC(=O)[C@H]([C@@H](C)O)NC(=O)[C@H](CSSC[C@H](N)C(=O)N[C@@H](CCCCN)C(=O)NCC(=O)N[C@@H](CCCCN)C(=O)NCC(=O)N[C@@H](C)C(=O)N[C@@H](CCCCN)C(=O)N2)NC(=O)[C@H](CSSC[C@@H](C(N)=O)NC(=O)[C@H](CCCCN)NC(=O)CNC(=O)[C@H](CO)NC(=O)[C@H](CCCNC(=N)N)NC3=O)NC(=O)[C@H](CC(=O)O)NC(=O)[C@H](Cc2ccc(O)cc2)NC1=O [SNX-111],,demonstrated activity in a number of models of ischemia and pain
